Results published in patent publication US9738599B2, “Thromboxane receptor antagonists” (UNIVERSITY COLLEGE DUBLIN, NATIONAL UNIVERSITY OF IRELAND, …, priority 2012, dated 2017).

Tested on: human platelets
Experiment: U46619-induced human platelet aggregation ex vivo in platelet rich plasma
Format: cell-based
Conditions: fold less potent than TP20
Description: A modification of the turbidimetric method originally developed by Born & Cross (Born, G. V. and Cross, M. J., The Aggregation of Blood Platelets, J Physiol, 1963, 168:178-95) is used. The principle is based on the diffraction of the light by particles. When a light beam passes through a suspension of particles, it is diffracted, depending on the number and the size of the particles in suspension.
In the Born & Cross method, a light beam passes through a platelet suspension and the quantity of light is measured by a detector placed after the sample. Upon platelet aggregation, the size of platelet aggregates will increase while the total number of free platelets will decrease. Consequently, less light will be diffracted and the detector will record an increase in light intensity. The aggregometer has been developed based on these concepts. Variations in light transmission recorded by this device reflects the platelet physiology. When an agonist of platelet aggregation is added to a platelet suspension, platelets undergo activation and shape change. […]
Light transmission (T) is measured throughout all the experiment, which is ended 8 minutes after induction of aggregation. Maximal light transmission (Tmax) is determined in the sample without drugs. Minimal light transmission (Tmin) is measured in PRP without inducer. […]

## COc1ccc(-c2cccc(Oc3ccc(C#N)cc3S(=O)(=O)NC(=O)NC(C)(C)C)c2)cc1 [NTP4, N-(tert-butylcarbamoyl)-5-cyano-2-((4′-methoxy-[1,1′-biphenyl]-3-yl)oxy)benzenesulfonamide]
  Potency relative to TP20, inhibition of U46619-mediated platelet aggregation: approx. ten-fold
